Some test systems named below: OVCAR-8 ovarian; NCI-H23 lung; SW-620 colon; SK-MEL-2 melanoma; OVCAR-3 ovarian; ACHN renal; HT29 colon; SNB-75 CNS; U251 CNS.
What all share (experiment): NCI anticancer screen, dose series, 48 h

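96-well plates; 48 h exposure; 5 concentrations. Endpoints by linear interpolation between flanking doses. Not reached: highest tested concentration assigned. The concentration for 50% growth inhibition is given as GI50. TGI denotes the concentration required for complete inhibition of growth.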

Experimental findings from PubChem BioAssay (NCI) are described below.

With `NC1(CCCCCCCCCCC(=O)O)CNCCNCCNCCNC1`, the TGI with OVCAR-8 ovarian, in the assay with NCI-H23 lung, in the assay with SW-620 colon, with SK-MEL-2 melanoma, in the assay on OVCAR-3 ovarian and with ACHN renal was more than 100 µM each time. The compound further yielded a TGI in the assay with HT29 colon of more than 100 µM.

For the compound `CC[n+]1ccc2c(c1)C(=O)c1nccc3c1c-2nc1ccccc13`, the GI50 in the assay on OVCAR-8 ovarian is 1.04 µM; in the assay on NCI-H23 lung, 0.28 µM; with SW-620 colon it was 1.1 µM; with SK-MEL-2 melanoma, 1.35 µM; with OVCAR-3 ovarian it was 0.783 µM; in the assay on SNB-75 CNS, 0.678 µM. The GI50 is 0.35 µM with U251 CNS, 1.13 µM in the assay on ACHN renal and 4.15 µM in the assay with HT29 colon. Also, the TGI with OVCAR-8 ovarian worked out at 6.47 µM; with NCI-H23 lung, 2.64 µM; with SW-620 colon, 11.5 µM; in the assay on SK-MEL-2 melanoma, 6.08 µM; in the assay on OVCAR-3 ovarian it was 2.92 µM; in the assay on SNB-75 CNS, 2.56 µM. In addition, the TGI with U251 CNS is 1.28 µM; in the assay with ACHN renal, more than 15.5 µM; in the assay on HT29 colon, 23.1 µM.

For the compound `CCCCCCCCCCCCOC1C(CNCC2OC3OC(C)(C)OC3C2NC(=O)Nc2ccc(C(=O)OCC)cc2)OC2OC(C)(C)OC21` (configuration not stated), the GI50 with OVCAR-8 ovarian is 2.16 µM; with NCI-H23 lung it was 8.34 µM; in the assay on SW-620 colon it was 1.75 µM; in the assay with SK-MEL-2 melanoma, 13.4 µM; in the assay with OVCAR-3 ovarian, 3.41 µM; with SNB-75 CNS, 5.52 µM. Also, the GI50 was 1.94 µM with U251 CNS, 3.43 µM with ACHN renal and 1.71 µM with HT29 colon. Further, the TGI was 4.3 µM in the assay on OVCAR-8 ovarian; 21.5 µM in the assay with NCI-H23 lung; 3.29 µM in the assay on SW-620 colon; 29.7 µM in the assay on SK-MEL-2 melanoma; 11.5 µM in the assay with OVCAR-3 ovarian; 21.1 µM with SNB-75 CNS. The values for the TGI in the assay with U251 CNS, in the assay with ACHN renal and in the assay on HT29 colon were 3.71 µM, 10.9 µM and 3.56 µM, respectively.

Take `NNC(=O)c1cnn(-c2ccnc3c(C(F)(F)F)cccc23)c1N`: the GI50 in the assay with OVCAR-8 ovarian was more than 100 µM; with NCI-H23 lung it was more than 100 µM; in the assay on SW-620 colon it was more than 100 µM; in the assay on SK-MEL-2 melanoma, more than 100 µM; with OVCAR-3 ovarian it was more than 100 µM; in the assay on SNB-75 CNS, 99.7 µM. In addition, the GI50 in the assay with U251 CNS, in the assay on ACHN renal and in the assay on HT29 colon was more than 100 µM in each case. Also, the TGI in the assay with OVCAR-8 ovarian, in the assay on NCI-H23 lung, in the assay with SW-620 colon, in the assay on SK-MEL-2 melanoma, in the assay on OVCAR-3 ovarian and in the assay on SNB-75 CNS was more than 100 µM throughout. Besides, the TGI in the assay on U251 CNS, with ACHN renal and with HT29 colon was more than 100 µM in each case.

`Cc1c(Cl)cccc1Nc1ncccc1C(=O)O`: the GI50 was more than 100 µM in the assay on OVCAR-8 ovarian; 58.3 µM in the assay on NCI-H23 lung; more than 100 µM in the assay with SW-620 colon; more than 100 µM in the assay with SK-MEL-2 melanoma; 39.8 µM with OVCAR-3 ovarian; more than 100 µM in the assay on SNB-75 CNS. Also, the GI50 with U251 CNS is 63.4 µM; in the assay with ACHN renal it was 58.5 µM; in the assay with HT29 colon, more than 100 µM. Besides, the TGI in the assay with OVCAR-8 ovarian, in the assay with NCI-H23 lung, in the assay with SW-620 colon, in the assay with SK-MEL-2 melanoma, in the assay with OVCAR-3 ovarian and in the assay on SNB-75 CNS was more than 100 µM throughout. The TGI in the assay with U251 CNS, in the assay on ACHN renal and in the assay with HT29 colon was more than 100 µM throughout.

Take `CCC1CCC2CCCC(C)N12` (configuration not stated): the TGI with OVCAR-8 ovarian, in the assay on NCI-H23 lung, in the assay with SW-620 colon, in the assay with SK-MEL-2 melanoma, in the assay with OVCAR-3 ovarian and in the assay on SNB-75 CNS was more than 100 µM throughout. In addition, the TGI in the assay with U251 CNS and with ACHN renal was more than 100 µM throughout.

With `COc1cc2c(NCCCCCCO[N+](=O)[O-])ncnc2c(OC)c1OC`, the TGI is 64.4 µM in the assay on OVCAR-8 ovarian; 59.6 µM with NCI-H23 lung; 70.5 µM in the assay with SW-620 colon; 53.9 µM with SK-MEL-2 melanoma; more than 78 µM in the assay with OVCAR-3 ovarian; 99.3 µM in the assay with SNB-75 CNS. Moreover, the TGI was more than 100 µM in the assay on U251 CNS, more than 100 µM in the assay with ACHN renal and more than 62 µM with HT29 colon.

With `COc1ccc(CNC(=O)COc2ccc(/C=N/Nc3nc4ccccc4s3)cc2)cc1`, the GI50 with OVCAR-8 ovarian was 3.93 µM; in the assay with NCI-H23 lung, 3.05 µM; in the assay with SW-620 colon, 5.23 µM; in the assay on SK-MEL-2 melanoma it was 3.84 µM; in the assay on OVCAR-3 ovarian it was 2.1 µM; with SNB-75 CNS, 1.07 µM. The GI50 was 1.73 µM with U251 CNS and 1.67 µM in the assay with ACHN renal. For the same compound, the TGI in the assay on OVCAR-8 ovarian was more than 100 µM; with NCI-H23 lung it was 12.6 µM; in the assay on SW-620 colon, more than 100 µM; in the assay with SK-MEL-2 melanoma it was 16 µM; in the assay with OVCAR-3 ovarian, 5.42 µM; with SNB-75 CNS it was 3.29 µM. Besides, the TGI with U251 CNS was 5.43 µM; in the assay with ACHN renal, 3.42 µM.

`CC1=C(CCCOC(=O)NCCCl)C2=C(C)C3(CC3)[C@@](C)(O)C(=O)C2=C1`: the GI50 with OVCAR-8 ovarian is 3.4 µM; in the assay with NCI-H23 lung, 1.83 µM; in the assay with SW-620 colon it was 24.5 µM; with SK-MEL-2 melanoma, 2.31 µM; with OVCAR-3 ovarian, 2.95 µM; with SNB-75 CNS it was 1.75 µM. Also, the GI50 was 3.97 µM with U251 CNS and 3.01 µM in the assay on HT29 colon. The TGI was more than 100 µM in the assay on OVCAR-8 ovarian; 9.17 µM with NCI-H23 lung; more than 100 µM in the assay on SW-620 colon; 4.96 µM with SK-MEL-2 melanoma; 9.9 µM in the assay on OVCAR-3 ovarian; 3.84 µM with SNB-75 CNS. The TGI in the assay on U251 CNS is more than 100 µM; with HT29 colon it was 28.6 µM.

In the case of `N#Cc1cnn2ccn(C3OC(COC(=O)c4ccccc4)C(OC(=O)c4ccccc4)C3OC(=O)c3ccccc3)c12` (configuration not stated), the TGI in the assay with OVCAR-8 ovarian was more than 46.4 µM; in the assay on NCI-H23 lung it was more than 21.5 µM; with SW-620 colon it was more than 21.5 µM; in the assay with SK-MEL-2 melanoma, 0.843 µM; in the assay with OVCAR-3 ovarian it was more than 21.5 µM; in the assay on SNB-75 CNS, 21.5 µM. Besides, the TGI with U251 CNS, in the assay on ACHN renal and in the assay with HT29 colon was more than 21.5 µM in each case.
